{"source": "patent US20230129866A1", "about": "(PureTech LYT 100, Inc., priority 2020, published 2023)", "key": {"[1]": {"tested_on": "NASH mice", "test": "Streptozotocin/high fat diet NASH mouse model: Sirius-red fibrosis area and NAFLD Activity Score", "format": "in vivo", "details": "n = 8", "text": "Non-alcoholic steatohepatitis (NASH) is characterized by lobular inflammation, hepatocyte ballooning and degeneration progressing to liver fibrosis. […] In addition, nine non-NASH mice were fed with a normal diet and monitored.\nWhile LYT-100 hepatocyte ballooning was similar to Vehicle, scores were lower for lobular inflammation and steatosis. (Table 6 and 7)."}, "[2]": {"tested_on": "Primary Mouse Lung Fibroblasts (PMLF)", "test": "Survival and TGF-β-induced proliferation of Primary Mouse Lung Fibroblasts (MTT)", "format": "cell-based", "details": "500 μM, 72 hrs, FIG. 3A", "procedure": "Primary Mouse lung fibroblast were prepared as follows. One lung was removed from 2 months old male BaIbC Mouse, perfused with sterile PBS, minced and incubated in 2 ml of serum free Dulbecco's Modified Eagle's Medium (DMEM) containing 100 μg/ml of collagenase I for one hour at 37° C. Each sample was centrifuged at 1500 r.p.m (revolution per minute) for 5 minutes, washed three times with PBS and the final cellular pellet was resuspended in DMEM supplemented with 10% serum and Pen/Strep, and incubated in 150 mm plates at 37 °C with 80% humidity and […]. The growth medium was removed and fresh medium was added every day for 10 days.\nAt the end of 10-day incubation period above, lung fibroblasts were confluent. […] One hundred μL of the growth medium was removed and 20 μL of MTT stock solution (prepared in PBS at 5.5 mg/ml concentration) was added and cells were incubated for 4 hours, then 100 μl of DMSO was added, and absorbance of developed color was monitored at 540-690 nm."}, "[3]": {"tested_on": "L929 cells", "test": "Survival of L929 cells (MTT)", "format": "cell-based", "details": "500 μM, TGFb 5 ng/ml, 72 hrs, FIG. 4A", "procedure": "Five thousand L929 cells were plated in completed DMEN and incubated until confluency for 3 days. Medium was removed and complete DMEM containg Prolin (20 μg/ml) and ascorbic acid (10 μM) was added. […] 100 μL of medium was removed, 20 μL MTT solution was added for 4 hrs, then 100 μl of DMSO was added, and absorbance of developed dark pink color was determined at […]."}, "[4]": {"tested_on": "L929 cells", "test": "TGF-induced collagen synthesis in L929 cells, 96-well plate format (SIRCOL)", "format": "cell-based", "details": "72 hrs, FIG. 4C", "procedure": "Five thousand L929 cells were plated in complete DMEN and incubated until confluency for 3 days. Medium was removed and complete DMEM containg Prolin (20 μg/ml) and ascorbic acid (10 μM) was added. […] Cells were further incubated for 72 hrs. Supernatant was removed, 0.5% glutaraldehyde was added for 30 min at RT, removed, washed 3× with ddwater, 0.5 M acetic acid was added for 30 min at RT, removed, washed with water, air dried and 100 μl SIRCOL dye was added for 5 h at RT. Dye was removed, plate was washed extensively under running water, air dried and 200 μl of 0.5 M NaOH was added, plates were shaken at RT for 1 h, and OD was determined at 600 nm."}, "[5]": {"tested_on": "L929 cells", "test": "TGF-induced soluble fibronectin synthesis in L929 cells (ELISA)", "format": "cell-based", "details": "500 μM; FIG. 4E", "procedure": "Five thousand L929 cells were plated in complete DMEN and incubated until confluency for 3 days.\nFibronectin is another important component of fibrotic lungs as it is induced by TGF-β and functions both as a structural component of extra cellular matrix as well as well as a ligand for integrin receptors. Just like soluble collagen, binding of fibronectin to integrin receptors induces the proliferation of fibroblast and epithelial cells of the lungs."}, "[6]": {"tested_on": "LPS-induced plasma IL-6", "test": "LPS-induced plasma IL-6 after oral pretreatment in rats", "format": "in vivo, Sprague-Dawley rats", "details": "Mean ± St. Dev, n = 6-8; for Plasma IL-6 concentrations 4 hours after LPS: vehicle 13989 ± 6125; for Plasma IL-6 concentrations 1.5 hours after LPS: vehicle 40423 ± 8653", "procedure": "LPS was diluted with sterile saline to […] and sonicated at 40° C. for 20 minutes to generate a stock solution and stored at 4° C. Each day of use, the stock solution was further diluted to 0.03 mg/mL in sterile saline.\nMale Sprague-Dawley rats with indwelling femoral and jugular venous catheters (n=6-8 per dose and test article group) were used in this study. […] Sixty minutes after the oral dose, 0.03 mg/kg of LPS in 1 mL/kg saline was infused into the jugular vein.\nBlood samples were collected from the femoral vein into heparin-coated syringes 15 minutes prior to the LPS infusion (45 minutes after oral doses of test article), 90 minutes after the LPS infusion and 4 hours after the LPS infusion. Plasma was prepared by centrifugation of the blood samples at 14,000 rpm for 10 minutes. Plasma samples were stored at −70 ° C. until analysis."}, "[7]": {"test": "In vitro comparative mass balance and metabolite studies in liver microsomes", "format": "in vitro ADME, human, rat, dog, mouse, monkey", "text": "Both LYT-100 and pirfenidone share a common major metabolite."}, "[8]": {"tested_on": "ICAM-1; vascular hyperpermeability; TGF-β and downstream signaling", "test": "Other studies for pirfenidone mechanisms in acute and chronic interstitial lung diseases"}, "[9]": {"details": "rat, in vivo", "experimental": "The original male TK animals received 1000 mg/kg of SD-559 on Day 1 and continued on study. The protocol was amended to add additional TK male animals in Group 6 for Day 1 collection of TK samples at 875 mg/kg.\nBlood samples were collected from 3 subsets of 3 animals/sex on Day 1 and Day 28 at pre-dose, 0.25, 0.5, 1, 2, 4. 8 and 24 hours (hr) post-dose for groups 2 to 6 and from one subset of 3 animals/sex at 0.25 hr post-dose for the vehicle group (group 1). […] Non-compartmental analysis (NCA) of plasma concentration data was conducted using Phoenix® WinNonlin®, version 8.0."}, "[10]": {"details": "human, in vivo, po", "quoted_text": "Following screening, eligible healthy volunteer subjects were admitted to a single clinical study site and were randomized to 1 of 2 treatment sequences. […] In each period, a standardized breakfast was provided to subjects prior to administration of study drug (to compare the PK profiles in the clinically relevant fed state) and plasma samples were collected over a 48-hour period after dosing for evaluation of PK. Dosing between the 2 periods was separated by a minimum of 7 days. Subjects completed the study upon completion of the 48-hour post-dose assessments following dosing period 2.\nAll capsules were identical in size, shape, and external color."}, "[11]": {"details": "human, in vivo", "experimental": "(§1) Up to 5 dosing cohorts are planned in Part 1.\n(§2) Additional cohorts and intermediate doses may be selected in lieu of predefined doses as noted and in accordance with safety and tolerability responses, but doses will not exceed 1000 mg BID or a total daily dose of 2000 mg.\n(§3) A standardised lunch will be served ≥4 h post breakfast and ≥4 h prior to dinner. An evening snack will be served ≥3 h following evening study medication administration. No additional fluids will be allowed during the 1 h pre- and post-doses. On Day 6, subjects will replicate mealtimes as scheduled on Day 1-5.\n(§4) Plasma PK parameters (non-compartmental or compartmental analysis as appropriate) will include, but are not limited to: • Following single dose: Tmax, tlag, Cmax, AUC0-4, AUC0-last, t1/2, AUC0-inf, lambda z, %AUCext, CL/F, Vz/F, Cmax/D, AUC0-last/D, AUC0-inf/D and MRT (D is dose) • After repeated doses: Ctrough, Ctrough/D • Following repeated doses on last day: Tmax, Cmax, Cavg, tlag, t1/2, AUC0-4, AUC0-last; AUC0-inf, lambda z, %AUCext, CLss/F, Vzss/F, MRT, PTF, Rac(AUC), Rac(Cmax), Cmax/D, AUClast/D, AUC0-inf/D and Rae (accumulation ratio)."}, "[12]": {"test": "Phase 1 multiple ascending dose (MAD) study Part 1, healthy volunteers (PK and safety)", "details": "100 to 1000 mg BID, 5 days", "experimental": "as §1, §2, §3, §4"}, "[13]": {"details": "30 mg/kg oral pretreatment 1 hour prior to LPS injection"}, "[14]": {"details": "100 mg/kg oral pretreatment 1 hour prior to LPS injection"}, "[15]": {"details": "300 mg/kg oral pretreatment 1 hour prior to LPS injection"}}, "data": [{"smiles": "[2H]C([2H])([2H])c1ccc(=O)n(-c2ccccc2)c1", "note": "[LYT-100, 5-(methyl-d3)-1-phenylpyridin-2-(1H)-one]", "values": [{"measurement": "Steatosis score 0: number of animals", "setting": "[1]; NAS component, score 0 = <5%, LYT-100 30 mg/kg twice daily", "value": 4}, {"measurement": "Steatosis score 1: number of animals", "setting": "[1]; NAS component, score 1 = 5-33%, LYT-100 30 mg/kg twice daily", "value": 3}, {"measurement": "Lobular Inflammation score 1: number of animals", "setting": "[1]; NAS component, score 1 = <2 foci/200x, LYT-100 30 mg/kg twice daily", "value": 5}, {"measurement": "Lobular Inflammation score 2: number of animals", "setting": "[1]; NAS component, score 2 = 2-4 foci/200x, LYT-100 30 mg/kg twice daily", "value": 3}, {"measurement": "Steatosis score 2: number of animals", "setting": "[1]; NAS component, score 2 = >33%-66%, LYT-100 30 mg/kg twice daily", "value": 1}, {"measurement": "Hepatocyte ballooning score 2: number of animals", "setting": "[1]; NAS component, score 2 = Many cells/prominent ballooning, LYT-100 30 mg/kg twice daily", "value": 8}, {"measurement": "Fibrosis Area (%) (mean ± SD)", "setting": "[1]; Sirius-red stained liver sections, LYT-100 30 mg/kg orally twice daily from 6-9 weeks of age, p < 0.01 vs Vehicle (1.02 ± 0.20)", "value": "0.64 ± 0.31", "unit": "%"}, {"measurement": "Effect on survival of PMLF alone", "setting": "[2]", "value": "did not affect the survival"}, {"measurement": "Effect on survival of L929 cells", "setting": "[3]", "value": "does not affect survival"}, {"measurement": "Effect on TGF-β-induced total collagen levels", "setting": "[4]; 500 μM 1 h prior to TGF-β 5 ng/ml", "value": "inhibited or reduced"}, {"measurement": "Effect on total collagen level in the absence of TGF-β induction", "setting": "[4]; 500 μM", "value": "signficantly inhibited or reduced"}, {"measurement": "Effect on soluble fibronectin levels, in the absence and presence of TGF-β-induction", "setting": "[5]", "value": "signficantly reduced"}, {"measurement": "Plasma IL-6 concentrations 4 hours after LPS", "setting": "[6]; [13]", "value": "8174 ± 5504", "unit": "pg/mL"}, {"measurement": "Plasma IL-6 concentrations 1.5 hours after LPS", "setting": "[6]; [13]", "value": "18197 ± 6484", "unit": "pg/mL"}, {"measurement": "Plasma IL-6 concentrations 4 hours after LPS", "setting": "[6]; [14]", "value": "4632 ± 5930", "unit": "pg/mL"}, {"measurement": "Plasma IL-6 concentrations 1.5 hours after LPS", "setting": "[6]; [14]", "value": "21642 ± 17174", "unit": "pg/mL"}, {"measurement": "Plasma IL-6 concentrations 4 hours after LPS", "setting": "[6]; [15]", "value": "1550 ± 1414", "unit": "pg/mL"}, {"measurement": "Plasma IL-6 concentrations 1.5 hours after LPS", "setting": "[6]; [15]", "value": "13519 ± 8674", "unit": "pg/mL"}, {"measurement": "Novel metabolites through deuteration", "setting": "[7]; human, rat, dog, mouse, and monkey liver microsomes", "value": "did not introduce novel"}, {"measurement": "Rate of metabolism compared with pirfenidone", "setting": "[7]; liver microsomes", "value": "occurred more slowly"}, {"measurement": "Effect on ICAM-1", "setting": "[8]", "value": "downregulates"}, {"measurement": "Effect on TGF-β and downstream signaling", "setting": "[8]", "value": "suppresses"}, {"measurement": "Effect on vascular hyperpermeability", "setting": "[8]", "value": "reduces"}, {"measurement": "Accumulation after multiple dosing for 28 Days", "setting": "[9]", "value": "No accumulation"}, {"measurement": "Tolerability of single doses", "setting": "[10]", "value": "well tolerated"}, {"measurement": "Dose dependence of AUC96-108 across all dose Cohorts", "setting": "[11]", "value": "linear dose proportionality"}, {"measurement": "Dose limiting toxicities", "setting": "[11]", "value": "no dose limiting toxicities observed"}, {"measurement": "Grading of adverse events", "setting": "[11]", "value": "mild and transient"}, {"measurement": "AEs considered possibly related to treatment", "setting": "[11]; 5 days", "value": 33}, {"measurement": "Most common AE, headache: subjects", "setting": "[11]; 5 days", "value": 25, "unit": "%"}, {"measurement": "Subjects who experienced adverse events", "setting": "[11]; 5 days", "value": 33, "unit": "subjects"}, {"measurement": "Total adverse events (AEs)", "setting": "[11]; 5 days", "value": 72}, {"measurement": "Maximally tolerated dose", "setting": "[12]", "value": "no maximally tolerated dose was reached"}]}]}
